Experimental data taken from patent US20210401957A1, “ROBO1 CAR-NK CELL CARRYING SUICIDE GENE, PREPARATION METHOD AND APPLICATION THEREOF” (Asclepius (Suzhou) Technology Company Group Co., Ltd., priority 2019, published 2021).

Test system: ROBO1-iCaspase9CAR-NK cells
Test: Apoptosis of ROBO1-iCaspase9 CAR-NK cells induced by medicament AP1903
Type: cell-based, human
Conditions: within 24 hours
Method: Different amounts of medicament AP1903 were respectively added into the ROBO1 CAR-NK cells carrying the suicide gene (ATCG427B-1F7 and 2D5) after screening in Example 6 to test the effect thereof on apoptosis of the ROBO1 CAR-NK cells carrying the suicide gene (denoted with ATCG427B). Meanwhile, the medicament AP1903 was added into the ROBO1 CAR-NK cells as control, and divided into three experimental groups, i.e., cells treated by the medicament AP1903 with different concentrations (0 nM, 10 nM and 50 nM) for 2 hours, 4 hours and 24 hours. The experimental groups respectively treated for 4 hours and 24 hours were continuously cultured with fresh medium, and the cell viability was counted three days later, and the results were shown in FIG. 12. In addition, the 0 nM and 10 nM experimental groups treated for 4 hours were cultured in fresh medium for 24 hours and then photographed, and the results were shown in FIG. 13.

CC[C@H](C(=O)N1CCCC[C@H]1C(=O)O[C@H](CCc1ccc(OC)c(OC)c1)c1cccc(OCC(=O)NCCNC(=O)COc2cccc([C@@H](CCc3ccc(OC)c(OC)c3)OC(=O)[C@@H]3CCCCN3C(=O)[C@@H](CC)c3cc(OC)c(OC)c(OC)c3)c2)c1)c1cc(OC)c(OC)c(OC)c1 [AP1903]
effect of AP1903 on the control cells (printed as ROBO1-iCaspase9CAR-NK cells): has no effect
killing of ROBO1-iCaspase9CAR-NK cells by AP1903: can effectively kill
